From patent US12410153B2, “Compounds, compositions and methods” (Avalo Therapeutics, Inc., priority 2014, dated 2025)
Where two headings read alike, the source gives them in different places.

Legend:
[1] = Human pharmacokinetic study, single ascending oral doses; assay type: in vivo; details: for AUC(0-inf) / AUC(0-t) / Cmax / Tmax / half-life: male, human, plasma, oral
Procedure: Twenty-four healthy, young male subjects were assigned to 1 of 3 sequential treatment panels (A, B, and C). For each panel of 8 subjects, 2 subjects received placebo and 6 subjects were administered single ascending oral doses of crystalline Form II of Compound (I) with a minimum 7-day washout between each dose: Panel A (0.1, 0.2, 0.5, 1, and 2 mg); Panel B (2, 4, 8, and 15 mg, and 4 mg with food); and Panel C (15 and 20 mg). Blood samples were collected pre-dose and 0.5, 1, 1.5, 2, 3, 4, 6, 9, 12, 18, 24, 30, 48, and 72 h post dose. Plasma samples were analyzed for Form II concentrations using reversed phase high performance liquid chromatography with tandem mass spectrometric detection (Merck Research Laboratories). The analytical range was 0.5 to 500 nM (0.180 to 180 ng/mL).

[2] = tested on: monkeys; assay: Cardiovascular safety in conscious chair-restrained monkeys, single oral doses; assay type: in vivo, monkey
Procedure: (§1) The potential effects of Form II of Compound (I) on the functions of the nervous system, cardiovascular system, and respiratory system were evaluated in a battery of safety pharmacology studies that included an in vitro human ether-a-go-go-related gene (hERG) assay and in vivo studies in rats, dogs, and monkeys. CNS effects were tested in rats at single doses at 15, 75, and 225 mg/kg.
(§2) Effects of Form II on the cardiovascular system were tested in several studies. Potential QTc effects were tested in vitro and in vivo.
(§3) Hemodynamic effects were tested in dogs and monkeys. […] However, Form II did produce dose-independent increases in systolic (12-15 mm Hg), diastolic (7-10 mm Hg), and mean arterial pressures (9-12 mm Hg) in conscious, chair-restrained monkeys given single oral doses at 15, 75, or 150 mg/kg and monitored for 6 h post-dose.

[3] = as above; assay type: in vivo, monkey; details: monkey, plasma
Procedure: as §1, §2, §3

[4] = 15, 75, or 150 mg/kg oral, dose-independent

Cc1ccc(COC(=O)N2CC[C@H](CNc3ncccn3)[C@H](F)C2)cc1 [Form II, 4-methylbenzyl (3S, 4R)-3-fluoro-4-[(pyrimidin-2-ylamino)methyl] piperidine-1-carboxylate]
decrease in Cmax, fed vs fasted ([1]; 4 mg): ~56% | delay in Tmax, fed vs fasted ([1]; 4 mg): ~1 h | overall extent of absorption (AUC), fed vs fasted ([1]; 4 mg): not affected | AUC(0-inf) ([1]; 2 mg, fasted, mean): 493 ng·h/mL | AUC(0-t) ([1]; 2 mg, fasted, mean): 398 ng·h/mL | Cmax ([1]; 2 mg, fasted, mean): 51.5 ng/mL | Tmax ([1]; 2 mg, fasted, mean, read-out: Tmax): 1.08 h | half-life ([1]; 2 mg, fasted, mean, read-out: t1/2 (converted)): 16.1 h | AUC(0-inf) ([1]; 4 mg, 4 mg (fed), mean): 1140 ng·h/mL | AUC(0-t) ([1]; 4 mg, 4 mg (fed), mean): 1080 ng·h/mL | Cmax ([1]; 4 mg, 4 mg (fed), mean): 80 ng/mL | Tmax ([1]; 4 mg, 4 mg (fed), mean, read-out: Tmax): 2 h | half-life ([1]; 4 mg, 4 mg (fed), mean, read-out: t1/2 (converted)): 17.3 h | AUC(0-inf) ([1]; 4 mg, fasted, mean): 1110 ng·h/mL | AUC(0-t) ([1]; 4 mg, fasted, mean): 1060 ng·h/mL | Cmax ([1]; 4 mg, fasted, mean): 141 ng/mL | Tmax ([1]; 4 mg, fasted, mean, read-out: Tmax): 0.67 h | half-life ([1]; 4 mg, fasted, mean, read-out: t1/2 (converted)): 16.9 h | AUC(0-inf) ([1]; 8 mg, fasted, mean): 2260 ng·h/mL | AUC(0-t) ([1]; 8 mg, fasted, mean): 2150 ng·h/mL | Cmax ([1]; 8 mg, fasted, mean): 212 ng/mL | Tmax ([1]; 8 mg, fasted, mean, read-out: Tmax): 0.92 h | half-life ([1]; 8 mg, fasted, mean, read-out: t1/2 (converted)): 17 h | AUC(0-inf) ([1]; 15 mg, fasted, mean): 4400 ng·h/mL | AUC(0-t) ([1]; 15 mg, fasted, mean): 3520 ng·h/mL | Cmax ([1]; 15 mg, fasted, mean): 385 ng/mL | Tmax ([1]; 15 mg, fasted, mean, read-out: Tmax): 1.04 h | half-life ([1]; 15 mg, fasted, mean, read-out: t1/2 (converted)): 16.8 h | AUC(0-inf) ([1]; 20 mg, fasted, mean): 5910 ng·h/mL | AUC(0-t) ([1]; 20 mg, fasted, mean): 5590 ng·h/mL | Cmax ([1]; 20 mg, fasted, mean): 590 ng/mL | Tmax ([1]; 20 mg, fasted, mean, read-out: Tmax): 1 h | half-life ([1]; 20 mg, fasted, mean, read-out: t1/2 (converted)): 15.9 h | Tmax ([1]; across all fasted dose levels, read-out: mean Tmax): ≤ 1 h | half-life ([1]; over the 4- to 20-mg dose range, read-out: terminal elimination half-life): 12 to 17 h | Cmax and AUC vs dose ([1]; over the dose range studied): dose-proportional | heart rhythm and ECG parameters ([2]; 15, 75, and 150 mg/kg oral, monitored 6 h): did not affect | increase in diastolic pressure [2, 4]: 7-10 mm Hg | increase in mean arterial pressure [2, 4]: 9-12 mm Hg | increase in systolic pressure [2, 4]: 12-15 mm Hg | Cmax ([3]; 15 mg/kg oral): ~3 µM | Cmax ([3]; 75 mg/kg oral): ~9 µM | Cmax ([3]; 150 mg/kg oral): ~15 µM
